Assays:
[1] = biological target: cruzain (Trypanosoma cruzi, UniProt P25779); assay: biochemical; settings: for Cruzain 0’ Inhibition / Cruzain 10’ Inhibition: sheet "Screening results"
Protocol: (§1) Allison Doak and Prof. Brian Shoichet (University of California San Francisco, San Francisco, CA, USA) and Prof. Conor Caffrey (University of California San Diego, San Diego, CA, USA) generously provided recombinant cruzain and TbrCatL, respectively. In vitro activity of proteases cruzain and TbrCatL was assayed as previously described. Briefly, enzyme activity was measured by monitoring the cleavage of the fluorogenic substrate […] (Z-FR-AMC) at 25 °C. Fluorescence was monitored at 340/440 nm (excitation/emission) over 5–7 min in a Synergy2 Biotek plate reader. […] DMSO and 1 μM E-64 were employed as negative and positive controls, respectively, in all assays. Two conditions were employed for both enzymes: 10′ pre-incubation of the enzyme in the presence of the compound (10′ inc) and no pre-incubation (0′). Reported values correspond to the mean and standard error of the mean (SEM) and all analyses were performed using GraphPad Prism 6.0.
(§2) For the initial screening, compounds were assayed at 5 μM. […] IC50 curves were obtained from a non-linear fit of at least seven distinct compound concentrations, in triplicate. Reported IC50 values are the mean and SEM of two independent measurements.

[2] = biological target: T1, TbrCatL (Trypanosoma brucei rhodesiense, UniProt Q95PM0); assay: TbrCatL enzymatic inhibition assay (cleavage of fluorogenic substrate Z-FR-AMC); type: biochemical; settings: for TbrCatL 0’ Inhibition / TbrCatL 10’ Inhibition: sheet "Screening results"
T1 construct: Conor Caffrey (University of California San Diego)
T1 sequence (Q95PM0 entry or part of it): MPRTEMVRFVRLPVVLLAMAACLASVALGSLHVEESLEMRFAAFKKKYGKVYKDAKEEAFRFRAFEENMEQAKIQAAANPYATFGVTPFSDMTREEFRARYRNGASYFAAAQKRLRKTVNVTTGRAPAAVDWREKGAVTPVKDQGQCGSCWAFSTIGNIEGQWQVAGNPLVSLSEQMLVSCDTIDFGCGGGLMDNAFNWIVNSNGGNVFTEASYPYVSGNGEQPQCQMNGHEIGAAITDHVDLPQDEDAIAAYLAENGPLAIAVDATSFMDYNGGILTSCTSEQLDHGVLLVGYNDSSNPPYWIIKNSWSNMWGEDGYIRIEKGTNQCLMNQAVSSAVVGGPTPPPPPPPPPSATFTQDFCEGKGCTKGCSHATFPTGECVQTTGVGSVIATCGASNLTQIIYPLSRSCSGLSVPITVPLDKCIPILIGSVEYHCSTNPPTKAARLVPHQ
Protocol: as §1, §2

[3] = 0’ (no pre-incubation), sheet Screening results
[4] = 10’ (pre-incubation), sheet Screening results
[5] = 0’ (pre-incubation time), Pathogen Box screening results
[6] = 10’ (pre-incubation time), Pathogen Box screening results
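Also: at 5 µM compound concentration.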

Sequence of cruzain (P25779 123-337 limits assumed): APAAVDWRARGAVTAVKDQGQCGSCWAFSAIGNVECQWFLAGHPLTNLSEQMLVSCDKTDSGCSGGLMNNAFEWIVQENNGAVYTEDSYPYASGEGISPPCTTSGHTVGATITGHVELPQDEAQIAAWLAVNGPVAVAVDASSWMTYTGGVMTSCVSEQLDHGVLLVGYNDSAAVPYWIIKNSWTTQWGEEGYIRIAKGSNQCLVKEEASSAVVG

| Structure (SMILES) | Cruzain Inhibition 0’ [1, 3] | Cruzain Inhibition 10’ [1, 4] | TbrCatL Inhibition 0’ [2, 3] | TbrCatL Inhibition 10’ [2, 4] | Cruzain 0’ Inhibition ([1]; 0’ (pre-incubation time)) | Cruzain 10’ Inhibition ([1]; 10’ (pre-incubation time)) | TbrCatL 0’ Inhibition ([2]; 0’ (pre-incubation time)) | TbrCatL 10’ Inhibition ([2]; 10’ (pre-incubation time)) | also measured |
| --- | --- | --- | --- | --- | --- | --- | --- | --- | --- |
| O[C@@H](c1cc(C(F)(F)F)nc2c(C(F)(F)F)cccc12)[C@H]1CCCCN1 [MMV000016] | -5.4% | -9% | 2.4% | -2.6% | – | – | – | – | – |
| COc1cc(N[C@@H](C)CCCN)c2ncccc2c1 [MMV000023] | 2.8% | 6.4% | 9% | 5% | – | – | – | – | – |
| N=C(N)c1ccc(OCCCCCOc2ccc(C(=N)N)cc2)cc1 [MMV000062] | 19% | 13% | 3% | -3% | – | – | – | – | – |
| CCN(CC)CCCCCCNc1cc(OC)cc2c(C)ccnc12 [MMV000063] | 16% | 3% | 2.7% | 5.6% | – | – | – | – | – |
| O=S(=O)(c1ccc(Cl)cc1)N1CCN(C(=S)NCc2ccco2)CC1 [MMV000858] | 8% | 13% | 0.9% | 6% | – | – | – | – | – |
| COc1cccc2c(C)nc(N=C(N)N)nc12 [MMV000907] | 9.5% | 25% | 32% | 23% | – | – | – | – | – |
| CCCS(=O)(=O)N1CCC(CO)(Cc2ccccc2C(F)(F)F)CC1 [MMV001059] | – | – | – | – | 0.9% | -1.3% | -3.7% | -0.8% | – |
| COC(=O)C1=C(C)NC(C)=C(C(=O)OC(C)C)[C@H]1c1cccc2nonc12 [MMV001493] | 26% | 12% | 1.3% | -2.4% | – | – | – | – | – |
| C[C@H]1CS(=O)(=O)CCN1/N=C/c1ccc([N+](=O)[O-])o1 [MMV001499] | – | – | – | – | 7% | 7.5% | 5% | 11% | – |
| NCCC[C@@](N)(C(=O)O)C(F)F [MMV001625] | 20% | 7% | 2% | -1.9% | – | – | – | – | – |
| O=C(C1CCCCC1)N1CC(=O)N2CCc3ccccc3[C@@H]2C1 [MMV002529] | 22% | 18% | 5% | 5.7% | – | – | – | – | – |
| CCN(CC)C(=O)N1CCN(C)CC1 [MMV002816] | – | – | – | – | 2.5% | 1.9% | -0.5% | 0.1% | – |
| Oc1c(I)cc(I)c2cccnc12 [MMV002817] | 0.2% | -16% | 0.5% | -24% | – | – | – | – | – |
| COC(=O)Nc1nc2ccc(C(=O)c3ccccc3)cc2[nH]1 [MMV003152] | 3.3% | -1.4% | 4.7% | -5.3% | – | – | – | – | – |
| CN1CCCN(C(c2ccccc2)c2ccc(Cl)cc2)CC1 (centres unmarked) [MMV004168] | – | – | – | – | 3.6% | 6.6% | -5.4% | 1.8% | – |
| O=C1Nc2ccc(Br)cc2C12NCCc1c2[nH]c2ccccc12 (centres unmarked) [MMV006239] | 7.5% | 2.2% | 2.6% | 2.6% | – | – | – | – | – |
| Cc1ccc2[nH]c3c(NCCN(C)C)ncnc3c2c1 [MMV006372] | 27% | 21% | 10% | 14% | – | – | – | – | – |
| COc1cc2ncnc(NC3CCN(Cc4ccccc4)CC3)c2cc1OC [MMV006741] | 8% | 10% | 15% | 5.4% | – | – | – | – | – |
| Cc1cc(Cl)c(S(=O)(=O)N2CCCC2)cc1OCC(=O)NC1CCCCC1 [MMV006833] | – | – | – | – | 3% | 8% | 1.6% | 11% | – |
| CN(C)c1cc(NC(=O)Nc2ccccc2)c2ccccc2n1 [MMV006901] | 13% | 24% | 9% | 20% | – | – | – | – | – |
| Cc1cc(NC(=O)c2ccc(S(=O)(=O)N(Cc3ccccc3)C(C)C)cc2)no1 [MMV007133] | – | – | – | – | -3% | -4.5% | -7% | -11% | – |

| Structure (SMILES) | Cruzain Inhibition 0’ [1, 3] | Cruzain Inhibition 10’ [1, 4] | TbrCatL Inhibition 0’ [2, 3] | TbrCatL Inhibition 10’ [2, 4] | Cruzain 0’ Inhibition ([1]; 0’ (pre-incubation time)) | Cruzain 10’ Inhibition ([1]; 10’ (pre-incubation time)) | TbrCatL 0’ Inhibition ([2]; 0’ (pre-incubation time)) | TbrCatL 10’ Inhibition ([2]; 10’ (pre-incubation time)) | also measured |
| --- | --- | --- | --- | --- | --- | --- | --- | --- | --- |
| COc1cc(OC)cc(C(=O)NCC2Cc3cc(Cl)cc(-c4ccncc4)c3O2)c1 (centres unmarked) [MMV007471] | – | – | – | – | 1.1% | 6% | 0.4% | -2% | – |
| Cc1cc(C)n(-c2ccc(NC(=O)C3CCN(Cc4cnc(C)s4)CC3)cc2)n1 [MMV007625] | – | – | – | – | 5% | 1.6% | 1.5% | -1.8% | – |
| CCOc1ccc(-c2nc(NC(=O)CS(=O)(=O)c3ccccc3)sc2C)cc1 [MMV007638] | 7% | 10% | 0.6% | 9% | – | – | – | – | – |
| O=C(NC1CC1)c1ccc(CSCc2ccccc2Cl)o1 [MMV007803] | – | – | – | – | 0.3% | -1.7% | -6.5% | -0.2% | – |
| Nc1ccc(C(=O)Nc2ccc(-c3nc4ccccc4o3)cc2)cc1 [MMV007920] | – | – | – | – | 7% | 11% | 4.7% | -0.7% | – |
| COc1ccc(CN2CCOc3ccc(C(C)(O)CN(C)C)cc3C2)cc1C (centres unmarked) [MMV008439] | 0.3% | 0% | -5% | -3.4% | – | – | – | – | – |
| Cc1cc(C(=O)Nc2cnn(Cc3ccc(Cl)cc3Cl)c2)no1 [MMV009054] | -1.8% | -2% | -14% | -16% | – | – | – | – | – |
| O=C(C1CCN(c2nnnn2-c2ccccc2)CC1)N1CCc2ccccc2C1 [MMV009135] | – | – | – | – | 0.1% | 0.1% | -1.2% | 6% | – |
| COc1ccc(-c2cnc3ccc(NCc4ccc(S(N)(=O)=O)cc4)nn23)cn1 [MMV010545] | – | – | – | – | 0.8% | 3.6% | -3.2% | 7% | – |
| COc1cc(-c2cc(-c3ccc(S(C)(=O)=O)cc3)cnc2N)ccc1O [MMV010576] | – | – | – | – | 1.1% | 4% | 0.5% | 0.9% | – |
| c1csc(-c2cnc3sc(NCC4CCOCC4)nn23)c1 [MMV010764] | 14% | 16% | 14% | 19% | – | – | – | – | – |
| Cc1cc(Nc2ccc(C(F)(F)F)cc2)n2ccnc2n1 [MMV011229] | – | – | – | – | -0.9% | 1.4% | -1% | 6% | – |
| COc1ccc(CCN2CCC(NCc3cccc(N(C)C)c3)CC2)cc1 [MMV011511] | – | – | – | – | 5.7% | 3.6% | 0.4% | 9% | – |
| NCC(=O)N1CCn2c(nc(-c3ccccc3)c2Nc2ccc3c(c2)OCO3)C1 [MMV011691] | – | – | – | – | 1.8% | -3.4% | -1.7% | 1.3% | – |
| FC(F)(F)c1cnc(Sc2nnc(-c3ccncc3)o2)c(Cl)c1 [MMV011765] | – | – | – | – | 0.7% | -0.5% | -4% | -1.2% | – |
| Cc1ccc(NC(=O)c2nc[nH]c2C(=O)Nc2nc3ccccc3[nH]2)c(C)c1 [MMV011903] | -1.2% | -15% | -18% | -43% | – | – | – | – | – |
| Cc1nc2ccccn2c1C(=O)NCc1ccc(Cl)cc1 [MMV012074] | 25% | 12% | -0.2% | 5.6% | – | – | – | – | – |
| Cc1cc(Nc2ccncc2)n2nc(C)c(-c3ccccc3Cl)c2n1 [MMV016136] | 4.7% | 4.5% | 3.2% | 6% | – | – | – | – | – |
| Cc1ccc(-c2cc(C(=O)Nc3cccnc3)c3cc(Br)ccc3n2)cc1 [MMV016838] | – | – | – | – | – | – | – | – | Cruzain Inhibition 0’ [1, 5]: 4.3%; Cruzain Inhibition 10’ [1, 6]: 7.6%; TbrCatL Inhibition 0’ [2, 5]: 1.7%; TbrCatL Inhibition 10’ [2, 6]: 0.3% |
| Cc1cc(C)n2nc(C(=O)Nc3cc(C(F)(F)F)ccc3N3CCOCC3)nc2n1 [MMV019087] | 1.6% | 2.6% | 4.3% | 3% | – | – | – | – | – |

Reference: paper PMC9967275, “Screening the Pathogen Box to Discover and Characterize New Cruzain and TbrCatL Inhibitors” (Pathogens, 2023)
